We go through one compound from paper PMC8500922 (Structure (London, England : 1993), 2021).

SMILES strings stand for the structures.

In assay [1] the target is T1, ternary SpNatC (Schizosaccharomyces pombe, UniProt O74311+Q9USY3).
T1 sequence (O74311 1-150): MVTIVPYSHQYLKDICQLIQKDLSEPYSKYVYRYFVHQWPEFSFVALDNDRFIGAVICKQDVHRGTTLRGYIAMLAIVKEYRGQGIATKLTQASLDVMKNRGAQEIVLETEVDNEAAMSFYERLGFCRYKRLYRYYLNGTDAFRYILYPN
T1 sequence (Q9USY3 31-708): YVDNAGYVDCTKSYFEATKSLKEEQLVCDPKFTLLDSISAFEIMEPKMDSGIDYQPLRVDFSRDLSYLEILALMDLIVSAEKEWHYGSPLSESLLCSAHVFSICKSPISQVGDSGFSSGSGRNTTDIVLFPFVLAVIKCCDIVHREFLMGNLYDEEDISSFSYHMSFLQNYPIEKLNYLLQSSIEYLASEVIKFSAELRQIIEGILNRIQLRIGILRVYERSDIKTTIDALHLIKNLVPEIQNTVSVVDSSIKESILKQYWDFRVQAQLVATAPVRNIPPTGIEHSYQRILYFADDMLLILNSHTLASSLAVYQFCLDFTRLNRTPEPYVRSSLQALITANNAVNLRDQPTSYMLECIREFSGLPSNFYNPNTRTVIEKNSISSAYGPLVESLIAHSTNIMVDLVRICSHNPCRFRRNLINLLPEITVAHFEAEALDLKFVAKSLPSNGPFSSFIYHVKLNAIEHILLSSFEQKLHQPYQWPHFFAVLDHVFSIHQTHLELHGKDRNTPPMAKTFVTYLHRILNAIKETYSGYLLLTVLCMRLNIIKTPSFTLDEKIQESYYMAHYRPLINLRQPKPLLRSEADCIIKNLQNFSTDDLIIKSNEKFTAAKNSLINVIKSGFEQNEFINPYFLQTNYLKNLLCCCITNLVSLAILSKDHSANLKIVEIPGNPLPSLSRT
T1 sequence (O43080 4-72 partner limits assumed): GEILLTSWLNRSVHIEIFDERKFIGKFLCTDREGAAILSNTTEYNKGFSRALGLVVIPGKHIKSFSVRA
The experiment in a line: isothermal titration calorimetry. The class given is binding. (In general: ITC needs no label: the signal is the heat of the interaction.)

Assay [2] deals with T2, SpNatA (Schizosaccharomyces pombe, UniProt O74985+Q9UTI3).
T2 sequence (Q9UTI3 1-156): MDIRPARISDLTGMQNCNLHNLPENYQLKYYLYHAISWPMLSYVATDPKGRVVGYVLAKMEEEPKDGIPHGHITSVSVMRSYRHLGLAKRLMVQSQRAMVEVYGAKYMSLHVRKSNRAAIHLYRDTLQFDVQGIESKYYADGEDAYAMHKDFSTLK
T2 sequence (O74985 1-729): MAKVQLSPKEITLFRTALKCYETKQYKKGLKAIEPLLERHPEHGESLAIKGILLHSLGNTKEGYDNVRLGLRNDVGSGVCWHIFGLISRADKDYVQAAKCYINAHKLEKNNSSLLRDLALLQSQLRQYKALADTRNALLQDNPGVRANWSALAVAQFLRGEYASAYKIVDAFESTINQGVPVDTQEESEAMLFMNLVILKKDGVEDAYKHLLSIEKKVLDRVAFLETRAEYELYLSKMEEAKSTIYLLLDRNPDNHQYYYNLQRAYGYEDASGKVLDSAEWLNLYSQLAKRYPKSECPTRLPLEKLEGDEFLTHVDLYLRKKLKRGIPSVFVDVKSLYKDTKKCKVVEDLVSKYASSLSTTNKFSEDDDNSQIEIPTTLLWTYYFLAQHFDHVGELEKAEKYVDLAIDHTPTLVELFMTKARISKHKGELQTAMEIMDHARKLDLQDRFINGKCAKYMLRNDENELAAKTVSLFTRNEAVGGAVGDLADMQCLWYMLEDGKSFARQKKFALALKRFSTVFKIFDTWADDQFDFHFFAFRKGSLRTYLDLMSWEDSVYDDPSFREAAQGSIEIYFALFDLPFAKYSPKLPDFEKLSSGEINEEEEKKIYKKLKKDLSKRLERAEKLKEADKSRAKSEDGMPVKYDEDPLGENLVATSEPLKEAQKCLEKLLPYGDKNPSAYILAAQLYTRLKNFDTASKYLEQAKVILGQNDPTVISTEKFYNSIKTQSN
Kind of assay: […] acetyltransferase assay with and without IP6. In kind it is biochemical. The following applies: 2 μM IP6, 50 μM Ac-CoA, 50 μM SASE peptide, pH 7.0, room temperature.

Assay [3] addresses hNatB (Homo sapiens, UniProt P61599). The experiment in a line: […] acetyltransferase assay with and without IP6. The class given is biochemical. As to conditions: 2 μM IP6, 50 μM Ac-CoA, 50 μM MDVF peptide, pH 7.0, room temperature.

hNatB, sequence (P61599 1-163): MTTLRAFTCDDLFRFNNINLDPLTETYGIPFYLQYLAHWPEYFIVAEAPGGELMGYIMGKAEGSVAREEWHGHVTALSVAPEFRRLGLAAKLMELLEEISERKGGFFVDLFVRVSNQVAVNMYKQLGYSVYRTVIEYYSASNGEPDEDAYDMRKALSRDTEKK
hNatB, sequence (Q14CX7 whole entry partner): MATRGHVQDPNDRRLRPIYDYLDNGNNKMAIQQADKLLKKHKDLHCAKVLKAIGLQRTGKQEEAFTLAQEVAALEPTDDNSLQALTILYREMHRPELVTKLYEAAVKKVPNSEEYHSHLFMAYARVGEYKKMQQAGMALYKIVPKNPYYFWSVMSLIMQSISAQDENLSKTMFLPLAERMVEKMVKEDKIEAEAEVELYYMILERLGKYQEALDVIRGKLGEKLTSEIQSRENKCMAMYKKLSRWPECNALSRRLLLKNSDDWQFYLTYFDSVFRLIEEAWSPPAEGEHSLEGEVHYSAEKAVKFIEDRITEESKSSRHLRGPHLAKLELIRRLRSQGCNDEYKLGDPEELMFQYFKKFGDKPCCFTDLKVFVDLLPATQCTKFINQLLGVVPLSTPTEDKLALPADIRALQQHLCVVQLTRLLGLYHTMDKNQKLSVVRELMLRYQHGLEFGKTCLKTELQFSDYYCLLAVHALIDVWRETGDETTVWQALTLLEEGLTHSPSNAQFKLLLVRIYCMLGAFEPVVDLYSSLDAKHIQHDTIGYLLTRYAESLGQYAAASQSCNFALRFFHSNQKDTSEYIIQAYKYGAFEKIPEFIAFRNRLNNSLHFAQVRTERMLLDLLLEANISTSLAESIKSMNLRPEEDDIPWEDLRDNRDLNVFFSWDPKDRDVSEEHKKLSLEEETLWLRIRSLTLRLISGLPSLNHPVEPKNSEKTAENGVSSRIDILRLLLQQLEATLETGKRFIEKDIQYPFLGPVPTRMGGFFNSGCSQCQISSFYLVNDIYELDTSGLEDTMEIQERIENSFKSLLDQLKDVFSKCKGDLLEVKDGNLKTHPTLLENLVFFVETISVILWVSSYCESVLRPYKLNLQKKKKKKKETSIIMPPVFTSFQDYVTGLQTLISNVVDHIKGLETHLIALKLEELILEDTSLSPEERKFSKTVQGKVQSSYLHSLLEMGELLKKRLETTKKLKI

As for `O=P(O)(O)O[C@H]1[C@H](OP(=O)(O)O)[C@@H](OP(=O)(O)O)[C@H](OP(=O)(O)O)[C@@H](OP(=O)(O)O)[C@H]1OP(=O)(O)O` [IP6, inositol hexaphosphate], in assay [1], the Kd (usually the constant that tells how readily two partners part at equilibrium) is approximately 225 nM. Moreover, the “modest inhibition at 2 μM” value is “produced a relatively modest inhibitory effect, as it also did for SpNatA and hNatB” in assay [2]; “produced a relatively modest inhibitory effect, as it also did for SpNatA and hNatB” in assay [3].
